Like-named read-outs stand apart in the source and are kept apart here.
Columns and labels:
HIV-1 IIIB = experiment: Anti-HIV-1 activity: protection of MT-4 cells from virus-induced cytopathogenicity (MTT); format: cell-based, Human Immunodeficiency Virus type-1; details: 50% protection of MT-4 cells from HIV-1 induced cytopathogenicity, MTT, 4-day incubation, read-out: HIV-1IIIB EC50
Description: (§1) Cell line supporting the multiplication of Human Immunodeficiency Virus type-1 (HIV-1) was the CD4+ human T-cells, derived from human hematological tumors, containing an integrated HTLV-1 genome (MT-4). Cells were purchased from American Type Culture Collection (ATCC). Human Immunodeficiency Virus type-1 (HIV-1) IIIB laboratory strain was obtained from the supernatant of the persistently infected H9/IIIB cells (NIH 1983).
The activity of compounds against HIV-1 was based on inhibition of virus-induced cytopathogenicity in MT-4 cell acutely infected with a multiplicity of infection (m.o.i.) of 0.01. Briefly, 50 μL of RPMI containing 1 × 10^4 MT-4 cells were added to each well of flat-bottom microtiter trays, containing 50 μL of RPMI without or with serial dilutions of test compounds. Then, 20 μL of a HIV-1 suspension containing 100 CCID50 were added. After a 4-day incubation at 37 °C, cell viability was determined by the MTT method.

MT-4 cells = experiment: Cytotoxicity against mock-infected MT-4 cells (MTT); format: cell-based, human; details: concentration reducing viability of mock-infected MT-4 cells by 50%, 96 h
Experimental: as §1
(§2) Exponentially growing MT-4 cells were seeded at an initial density of 1 × 10^5 cells/mL in 96-well plates in RPMI-1640 medium, supplemented with 10% fetal bovine serum (FBS), 100 units/mL penicillin G and 100 μg/mL streptomycin. Cell cultures were then incubated at 37 °C in a humidified, 5% CO2 atmosphere, in the absence or presence of serial dilutions of tested compounds. Cell viability was determined after 96 h at 37 °C by the 3-(4,5-dimethylthiazol-2-yl)-2,5-diphenyl-tetrazolium bromide (MTT) method.

CRL7065 = experiment: Antiproliferative assay (MTT), normal cell line; format: cell-based, human; details: normal foreskin fibroblasts, concentration reducing cell proliferation by 50%, 96 h
Experimental: (§3) Cell lines derived from human solid tumors were: Skin melanoma (SK-MEL-28); prostate carcinoma (DU-145). Normal tissues foreskin fibroblasts (CRL-7065) were also used. Cells were seeded at 1 × 10^5 cells/mL in 96 well plates in specific media supplemented with 10% FCS and antibiotics, as above. Cell cultures were then incubated at 37 °C in a humidified, 5% CO2 atmosphere in the absence or presence of serial dilutions of test compounds. Cell viability was determined after 96 h at 37 °C by the MTT method.

DU145 = experiment: Antiproliferative assay (MTT); format: cell-based, human; details: prostate carcinoma, concentration reducing cell proliferation by 50%, 96 h
Experimental: as §3

SK-MEL-28 = experiment: Antiproliferative assay (MTT); format: cell-based, human; details: skin melanoma, concentration reducing cell proliferation by 50%, 96 h
Experimental: as §3

WIL-2NS = experiment: Antiproliferative assay (MTT); format: cell-based, human; details: concentration reducing cell proliferation by 50%, 96 h, mean of three determinations
Experimental: (§4) Cell lines derived from human hematological tumors were: CD4+ human T-cells containing an integrated HTLV-1 genome (MT-4); CD4+ human acute T-lymphoblastic leukemia (CCRF-CEM); human splenic B-lymphoblastoid cells (WIL-2NS); human acute B-lymphoblastic leukemia (CCRF-SB). Cells were seeded at an initial density of 1 × 10^5 cells/mL in 96 well plates in RPMI-1640 medium supplemented with 10% fetal calf serum (FCS), 100 units/mL penicillin G and 100 μg/mL streptomycin.
as §3

CCRF-SB = experiment: Antiproliferative assay (MTT); format: cell-based, human; details: concentration reducing cell proliferation by 50%, 96 h, mean of three determinations
Experimental: as §4, §3

CCRF-CEM = experiment: Antiproliferative assay (MTT); format: cell-based, human; details: concentration reducing cell proliferation by 50%, 96 h, mean of three determinations
Experimental: as §4, §3

MT-4 = experiment: Antiproliferative assay (MTT); format: cell-based, human; details: concentration reducing cell proliferation by 50%, 96 h, mean of three determinations
Experimental: as §4, §3

[1] = Cytotoxicity against mock-infected MT-4 cells (MTT); format: cell-based, human; details: human, concentration reducing viability of mock-infected MT-4 cells by 50%
Experimental: as §1, §2

Row | SMILES | EC50 (HIV-1 IIIB) [µM] | CC50 (MT-4 cells) [µM] | CC50 (CRL7065) [µM] | CC50 (DU145) [µM] | CC50 (SK-MEL-28) [µM] | CC50 (WIL-2NS) [µM] | CC50 (CCRF-SB) [µM] | CC50 (CCRF-CEM) [µM] | CC50 (MT-4) [µM] | EC50 (HIV-1 IIIB; Human immunodeficiency virus 1, IIIB, MT4, 96 h) [µM] | CC50 at 96 h [1] [µM]
1 | O=[N+]([O-])c1cc(NC(=S)Nc2cccc(F)c2)ccc1Cl [Compound 8] | > 9 | 9 | – | – | – | – | – | – | – | – | –
2 | O=[N+]([O-])c1ccc(NC(=S)Nc2ccc(Cl)c([N+](=O)[O-])c2)cc1 [Compound 18] | > 7 | 7 | – | – | – | – | – | – | – | – | –
3 | O=[N+]([O-])c1cc(NC(=S)Nc2ccc(F)cc2)ccc1Cl [Compound 9] | > 7 | 7 | 22 | 8.4 | 20 | 11 | 9.4 | 9.1 | 7 | – | –
4 | O=[N+]([O-])c1cc(NC(=S)Nc2ccc(I)cc2)ccc1Cl [Compound 17] | > 7.8 | 7.8 | 30 | 11 | 6 | 7 | 8.3 | 6 | 7.8 | – | –
5 | O=[N+]([O-])c1cc(NC(=S)Nc2cccc(C(F)(F)F)c2)ccc1Cl [Compound 15] | > 8 | 8 | – | – | – | – | – | – | – | – | –
6 | O=[N+]([O-])c1cc(NC(=S)Nc2ccccc2F)ccc1Cl [Compound 7] | > 13 | 13 | – | – | – | – | – | – | – | – | –
7 | Cc1ccc(Cl)cc1NC(=S)Nc1ccc(Cl)c([N+](=O)[O-])c1 [Compound 14] | > 8.2 | 8.2 | 18 | 7.8 | 9 | 10 | 9.8 | 9.4 | 8.2 | – | –
8 | O=[N+]([O-])c1cc(NC(=S)Nc2cccc(Br)c2)ccc1Cl [Compound 5] | > 8 | 8 | – | – | – | – | – | – | – | – | –
9 | N#Cc1ccc(NC(=S)Nc2ccc(Cl)c([N+](=O)[O-])c2)cc1 [Compound 19] | > 8.2 | 8.2 | 20 | 8 | 9 | 10 | 9.2 | 9.1 | 8.2 | – | –
10 | CC[C@@]1(O)C(=O)OCc2c1cc1n(c2=O)Cc2cc3ccccc3nc2-1 [Camptotecin, reference compound] | – | – | 0.3 | 0.08 | 0.07 | 0.005 | 0.004 | 0.003 | 0.004 | – | –
11 | O=C1Nc2ccc(Cl)cc2[C@@](C#CC2CC2)(C(F)(F)F)O1 [Efavirenz, reference compound] | – | – | – | – | – | – | – | – | – | 0.002 | 46
12 | O=[N+]([O-])c1cc(NC(=S)Nc2ccc(Cl)cc2Cl)ccc1Cl [Compound 12] | > 8 | 8 | – | – | – | – | – | – | – | – | –
13 | O=[N+]([O-])c1cc(NC(=S)Nc2ccc(Br)cc2)ccc1Cl [Compound 6] | > 6.6 | 6.6 | 30 | 6 | 6 | 7 | 8 | 6 | 6.6 | – | –
14 | O=[N+]([O-])c1cc(NC(=S)Nc2cccc(Cl)c2)ccc1Cl [Compound 2] | > 7 | 7 | – | – | – | – | – | – | – | – | –
15 | O=[N+]([O-])c1cc(NC(=S)Nc2ccc(C(F)(F)F)cc2)ccc1Cl [Compound 16] | > 7 | 7 | – | – | – | – | – | – | – | – | –
16 | CC(NC(=S)Nc1ccc(Cl)c([N+](=O)[O-])c1)c1ccccc1 (stereo not shown) [Compound 26] | > 16.7 | 16.7 | – | – | – | – | – | – | – | – | –
17 | O=[N+]([O-])c1cc(NC(=S)Nc2ccccc2Br)ccc1Cl [Compound 4] | – | 9.6 | 20 | 8 | 15 | 30 | 22 | 22 | 9.6 | – | –
18 | O=[N+]([O-])c1cc(NC(=S)Nc2ccc(Cl)cc2)ccc1Cl [Compound 3] | > 7 | 7 | – | – | – | – | – | – | – | – | –
19 | O=[N+]([O-])c1cc(NC(=S)Nc2ccccc2Cl)ccc1Cl [Compound 1] | > 8.8 | 8.8 | 18 | 7.6 | 8.7 | 14 | 14 | 13 | 8.8 | – | –
20 | O=[N+]([O-])c1cc(NC(=S)Nc2ccc(F)c(Cl)c2)ccc1Cl [Compound 10] | > 7.3 | 7.3 | 16 | 6.5 | 6.6 | 7 | 8.8 | 5 | 7.3 | – | –
